Data reported in PubChem BioAssay AID256 (DTP/NCI, 2004).
Several values for one entry are separate records, joined by “and”; a condition that tells them apart may be missing. Equal values may be shown once. Toxic doses and inconclusive results are not listed. Rule for the calls: active = survival T/C of 150% or more; inactive = T/C below 125% in these data.

System: CD2F1 mice, L1210 leukemia ip, survival T/C
Assay: NCI In Vivo Anticancer Drug Screen. Data for tumor model L1210 Leukemia (intraperitoneal) in CD2F1 (CDF1) mice
Settings: higher = longer survival
Procedure, shortened: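 Ratio T/C, where T is the treated-group value and C the vehicle-dosed control value, from mice implanted with a transplantable tumor.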

[1] = endpoint: mean survival time, dose: 100.0 mg/kg/injection, schedule: Q04DX003 (ip), vehicle: saline
[2] = endpoint: mean survival time, dose: 200.0 mg/kg/injection, schedule: Q04DX003 (ip), vehicle: saline
[3] = endpoint: mean survival time, dose: 400.0 mg/kg/injection, schedule: Q04DX003 (ip), vehicle: saline
[4] = endpoint: mean survival time, dose: 100.0 mg/kg/injection, schedule: Q01DX009 (ip), vehicle: saline
[5] = endpoint: mean survival time, dose: 200.0 mg/kg/injection, schedule: Q01DX009 (ip), vehicle: saline
[6] = endpoint: mean survival time, dose: 25.0 mg/kg/injection, schedule: Q01DX009 (ip), vehicle: saline with Tween-80
[7] = endpoint: mean survival time, dose: 50.0 mg/kg/injection, schedule: Q01DX009 (ip), vehicle: saline with Tween-80
[8] = endpoint: mean survival time, dose: 100.0 mg/kg/injection, schedule: Q04DX003 (ip), vehicle: saline with Tween-80
[9] = endpoint: mean survival time, dose: 200.0 mg/kg/injection, schedule: Q04DX003 (ip), vehicle: saline with Tween-80
[10] = endpoint: mean survival time, dose: 100.0 mg/kg/injection, schedule: Q01DX001 (ip), vehicle: saline with Tween-80
[11] = endpoint: mean survival time, dose: 200.0 mg/kg/injection, schedule: Q01DX001 (ip), vehicle: saline with Tween-80
[12] = endpoint: mean survival time, dose: 100.0 mg/kg/injection, schedule: Q01DX009 (ip), vehicle: saline with Tween-80
[13] = endpoint: mean survival time, dose: 200.0 mg/kg/injection, schedule: Q01DX009 (ip), vehicle: saline with Tween-80
[14] = endpoint: mean survival time, dose: 400.0 mg/kg/injection, schedule: Q01DX009 (ip), vehicle: saline with Tween-80
[15] = endpoint: mean survival time, dose: 50.0 mg/kg/injection, schedule: Q01DX009 (ip), vehicle: Klucel (hydroxypropylcellulose) (HPC)
[16] = endpoint: mean survival time, dose: 100.0 mg/kg/injection, schedule: Q01DX009 (ip), vehicle: Klucel (hydroxypropylcellulose) (HPC)
[17] = endpoint: mean survival time, dose: 200.0 mg/kg/injection, schedule: Q01DX009 (ip), vehicle: Klucel (hydroxypropylcellulose) (HPC)

Measured: T/C

OC1OCC(Cc2ccc3c(c2)OCO3)C1Cc1ccc2c(c1)OCO2 (stereo not given)
inactive: [1] 89 % of control | [2] 93 % of control | [3] 89 % of control

Nc1nc(N)c2nc(COc3ccc(C(=O)NC(CCC(=O)O)C(=O)O)cc3)ccc2n1 (stereo not given)
inactive: endpoint: mean survival time, dose: 15.63 micrograms/kg/injection, schedule: Q01DX005 (ip), vehicle: sodium bicarbonate 103 % of control and 106 % of control | endpoint: mean survival time, dose: 31.25 micrograms/kg/injection, schedule: Q01DX005 (ip), vehicle: sodium bicarbonate 120 % of control and 107 % of control | endpoint: mean survival time, dose: 62.5 micrograms/kg/injection, schedule: Q01DX005 (ip), vehicle: sodium bicarbonate 113 % of control

CC(C)(C)[Si](C)(C)Oc1ncc(F)c(O[Si](C)(C)C(C)(C)C)n1
inactive: endpoint: mean survival time, dose: 5.0 mg/kg/injection, schedule: Q01DX009 (ip), vehicle: distilled water + Tween-80 123 % of control | endpoint: mean survival time, dose: 10.0 mg/kg/injection, schedule: Q01DX009 (ip), vehicle: distilled water + Tween-80 113 % of control | endpoint: mean survival time, dose: 20.0 mg/kg/injection, schedule: Q01DX009 (ip), vehicle: distilled water + Tween-80 123 % of control

CCOC(=O)NC(=O)/C=C/N1CCCC1
inactive: endpoint: mean survival time, dose: 50.0 mg/kg/injection, schedule: Q01DX009 (ip), vehicle: saline 102 % of control | [4] 97 % of control | [5] 94 % of control

O=S1(=O)Cc2c(Br)c(Br)c(Br)c(Br)c2C1
inactive: endpoint: mean survival time, dose: 12.5 mg/kg/injection, schedule: Q01DX009 (ip), vehicle: saline with Tween-80 90 % of control | [6] 88 % of control | [7] 86 % of control | [8] 101 % of control | [9] 110 % of control | endpoint: mean survival time, dose: 400.0 mg/kg/injection, schedule: Q04DX003 (ip), vehicle: saline with Tween-80 96 % of control

c1ccc(N/N=C(/c2ccccc2)c2ccccn2)cc1
inactive: [10] 103 % of control | [11] 111 % of control | endpoint: mean survival time, dose: 400.0 mg/kg/injection, schedule: Q01DX001 (ip), vehicle: saline with Tween-80 105 % of control

O=C1CCC(=O)N1CO
inactive: [4] 102 % of control | [1] 106 % of control | [5] 109 % of control | [2] 101 % of control | endpoint: mean survival time, dose: 400.0 mg/kg/injection, schedule: Q01DX009 (ip), vehicle: saline 111 % of control | [3] 116 % of control

O=C(CNC1=NCCN1)Nc1ccc(NC(=O)c2ccc(C(=O)Nc3ccc(NC(=O)CNC4=NCCN4)cc3)cc2)cc1
inactive: endpoint: mean survival time, dose: 12.0 mg/kg/injection, schedule: Q01DX Z (ip), vehicle: carboxymethylcellulose (CMC) 102 % of control | endpoint: mean survival time, dose: 14.0 mg/kg/injection, schedule: Q01DX Z (ip), vehicle: carboxymethylcellulose (CMC) 106 % of control | endpoint: mean survival time, dose: 16.0 mg/kg/injection, schedule: Q01DX Z (ip), vehicle: carboxymethylcellulose (CMC) 102 % of control | endpoint: mean survival time, dose: 18.0 mg/kg/injection, schedule: Q01DX Z (ip), vehicle: carboxymethylcellulose (CMC) 106 % of control

CN(C)c1ccc(/C=C/c2ccnc3ccccc23)cc1
inactive: endpoint: mean survival time, dose: 12.5 mg/kg/injection, schedule: Q01DX Z (ip), vehicle: saline 103 % of control | endpoint: mean survival time, dose: 16.0 mg/kg/injection, schedule: Q01DX008 (iv), vehicle: saline 100 % of control | endpoint: mean survival time, dose: 25.0 mg/kg/injection, schedule: Q01DX Z (ip), vehicle: saline 103 % of control | endpoint: mean survival time, dose: 32.0 mg/kg/injection, schedule: Q01DX008 (iv), vehicle: saline 100 % of control | endpoint: mean survival time, dose: 50.0 mg/kg/injection, schedule: Q01DX Z (ip), vehicle: saline 103 % of control | endpoint: mean survival time, dose: 64.0 mg/kg/injection, schedule: Q01DX008 (iv), vehicle: saline 102 % of control

CC(=O)OC1CC(C)CCC1C(C)C (stereo not given)
inactive: [8] 113 % of control | [9] 106 % of control

C/C(CCC(=O)O)=N\NC(N)=O
inactive: [12] 97 % of control | [8] 95 % of control | [13] 97 % of control | [9] 90 % of control | [14] 93 % of control

COc1cc2c(c(OC)c1OC)-c1cc(I)c(O)cc1[C@@H](NC(C)=O)CC2
inactive: [12] 98 % of control

C[n+]1cccc(C(=O)NCCc2c[nH]c3ccccc23)c1
inactive: endpoint: mean survival time, dose: 18.75 mg/kg/injection, schedule: Q01DX009 (ip), vehicle: saline with Tween-80 92 % of control | endpoint: mean survival time, dose: 37.5 mg/kg/injection, schedule: Q01DX009 (ip), vehicle: saline with Tween-80 93 % of control | endpoint: mean survival time, dose: 37.5 mg/kg/injection, schedule: Q04DX003 (ip), vehicle: acetone 95 % of control | endpoint: mean survival time, dose: 75.0 mg/kg/injection, schedule: Q01DX009 (ip), vehicle: saline with Tween-80 97 % of control | endpoint: mean survival time, dose: 75.0 mg/kg/injection, schedule: Q04DX003 (ip), vehicle: acetone 95 % of control

Brc1c(NC2=NCCN2)ccc2nccnc12
inactive: endpoint: median survival time, dose: 1.56 mg/kg/injection, schedule: Q01DX009 (ip), vehicle: saline 102 % of control | endpoint: median survival time, dose: 3.12 mg/kg/injection, schedule: Q01DX009 (ip), vehicle: saline 96 % of control and 111 % of control | endpoint: median survival time, dose: 6.25 mg/kg/injection, schedule: Q01DX009 (ip), vehicle: saline 115 % of control and 119 % of control and 109 % of control | endpoint: median survival time, dose: 100.0 mg/kg/injection, schedule: Q01DX009 (ip), vehicle: saline 118 % of control

CCCCCCCCCCCC(=O)[O][Pb]([CH2]C)([CH2]C)[CH2]C
inactive: endpoint: mean survival time, dose: 3.13 mg/kg/injection, schedule: Q01DX009 (ip), vehicle: saline with Tween-80 87 % of control | endpoint: mean survival time, dose: 6.25 mg/kg/injection, schedule: Q01DX009 (ip), vehicle: saline with Tween-80 104 % of control

O=C(O)/C=C/C(=O)Nc1cccc2c1C(=O)c1ccccc1-2
inactive: [6] 97 % of control | [7] 94 % of control | [12] 102 % of control

CC(=O)Nc1ccc(NC(=O)Nc2ccc(C)c([N+](=O)[O-])c2)cc1
inactive: [7] 98 % of control | [12] 98 % of control | [13] 98 % of control

CCCCCCCCCCCCNCCC(=O)O
inactive: endpoint: mean survival time, dose: 75.0 mg/kg/injection, schedule: Q01DX001 (ip), vehicle: saline 93 % of control | endpoint: mean survival time, dose: 150.0 mg/kg/injection, schedule: Q01DX001 (ip), vehicle: saline 93 % of control

CCOC(=O)CCCN(C)C(C)(C)C#N
inactive: [12] 103 % of control | [14] 108 % of control

CC(=O)[CH-]C(C)=O.CC(=O)[CH-]C(C)=O.CC(N)CN.[Ni+2]
inactive: endpoint: mean survival time, dose: 50.0 mg/kg/injection, schedule: Q01DX009 (ip), vehicle: other 100 % of control

O=C1c2ccccc2CC12OC2c1ccccc1 (stereo not given)
inactive: endpoint: mean survival time, dose: 25.0 mg/kg/injection, schedule: Q01DX009 (ip), vehicle: Klucel (hydroxypropylcellulose) (HPC) 103 % of control | [15] 110 % of control | [16] 89 % of control | [17] 98 % of control | endpoint: mean survival time, dose: 400.0 mg/kg/injection, schedule: Q01DX009 (ip), vehicle: Klucel (hydroxypropylcellulose) (HPC) 98 % of control

COc1ccccc1N=Nc1c(O)n(-c2ccccc2OC)c(=S)n(-c2ccc(Cl)cc2)c1=O
inactive: [10] 90 % of control | [11] 93 % of control

O=C(O)c1ccccc1C(=O)Nc1nccs1
inactive: [15] 97 % of control | [16] 105 % of control | [17] 101 % of control

Nc1nc2nc(-c3ccccc3)c(-c3ccccc3)nc2c(=O)[nH]1
inactive: [12] 96 % of control | [13] 94 % of control | [14] 97 % of control
